Ends that are not written are not given here.
Key:
[1] = test system: trypsin biosynthesis in the midgut of female Aedes aegypti; assay: NPF injected into blood-fed whole female mosquitoes, midgut trypsin biosynthesis; assay type: in vivo; settings: whole blood-fed females, injected 0.25 μl at 10^−6 M, midguts assayed 30 hours later
Protocol: To determine whether NPF I and II affect trypsin biosynthesis in the midgut of female Aedes aegypti, females were fed a blood meal and immediately injected with 0.25 μl of the peptide at concentrations of 2.5 μg to 12.5 pg and 30 hours later the midguts were removed and assayed for trypsin biosynthesis (Borovsky et al., 1990 “Mosquito Oostatic Factor: A Novel Decapeptide Modulating Trypsin-Like Enzyme Biosynthesis in the Midgut” FASEB J. 4:3015-3020; Borovsky et al. 1993 “Mass Spectrometry and Characterization of Aedes aegypti Trypsin Modulating Oostatic Factor (TMOF) and its Analog” Insect Biochem. Molec. Biol. 23:703-712). Each experiment was repeated 3 times (5 females per group) and the results are expressed as % inhibition of trypsin biosynthesis±S.E.M. (FIG. 1).

[2] = target: TMOF receptor (mosquito gut receptor) (Aedes aegypti); assay: cell-based or functional assay
Aedes aegypti larvae = assay: Feeding TMOF and analog peptides to mosquito larvae (LD50); assay type: in vivo; settings: newly hatched larvae on autoclaved yeast 1 mg/ml, peptide 0 to 5.0 mg/ml, microtiter plates, 7 days
From the text: TMOF can traverse the gut epithelium, enter the hemolymph and bind a gut receptor (Borovsky, D. and F. Mahmood (1995) “Feeding the mosquito Aedes aegypti with TMOF and its analogs; effect on trypsin biosynthesis and egg development,” Regulatory Peptides 57:273-281.; Borovsky et al. (1994) “Characterization and localization of mosquito-gut receptors for trypsin modulating oostatic factor using complementary peptide immunochemistry”FASEB J. 8:350-355.). This characteristic permits the testing of TMOF and its analogues by feeding them to mosquito and other pest larvae. To find out if truncated TMOF peptides have an effect on larval growth and development, a series of peptides were synthesized and tested by feeding them to mosquito larvae at concentrations of 0 to 5.0 mg/ml (Table 2). Individual, newly hatched Aedes aegypti larvae were maintained in separate microtiter plate wells on a diet of autoclaved yeast (1 mg/ml). The diet was supplemented with TMOF peptides (Table 2). An identical number of larvae maintained on yeast served as a control. […] All control groups survived and larval growth and development was normal. Since larvae swallow only a small portion of the yeast particles adsorbed the peptides, it is assumed that approximately 1 to 20 ng are taken orally at the high concentrations.

TTLE biosynthesis = assay: Feeding TMOF analogs to fourth instar H. virescens: gut trypsin (TTLE) biosynthesis by [3H]DFP; assay type: in vivo, Heliothis virescens; set-up: Trypsin: unit not given here; settings: fourth instar larvae, 0.8 mg of analogue, 5 days
[3] = test system: fourth instar Heliothis virescens; assay: Feeding TMOF analogs to fourth instar H. virescens: larval weight; assay type: in vivo; settings: fourth instar larvae
Protocol: (§1) Several analogues were chosen and were fed to fourth instar Heliothis virescens for seven (7) days and to first instars for fourteen (14) days (Tables 3 and 4). In both cases a reduction in weight gain and trypsin inhibition was noted (Tables 3 and 4).
(§2) Individual first instar and fourth instar larvae of H. virescens were maintained in separate plastic cups and were fed on artificial diet blocks on which different concentrations of TMOF (0 to 1.6 mg) were adsorbed. Larvae were fed for 5 to 14 days and larval weight and trypsin activity were measured at the end of the experimental periods. […] When first instar larvae were fed for 14 days, an 18% and 26% reduction in weight was observed when analogues 15 and 16 were used (Table 4).
Fourth instar larvae were weighed and fed on synthetic food and 0.8 mg of TMOF analogues for 5 days. […]. Results are average of 3 to 10 experiments S.E.M.

[4] = test system: first instar Heliothis virescens; assay: Feeding first instar H. virescens on TMOF analogs for 14 days; assay type: in vivo; set-up: Weight Reduction ± S.E.M.: concentration or dose not given beside the values; settings: first instar larvae fed 14 days
Protocol: as §1, §2

Ala-Pro-Ser-Arg-Leu-Arg-Phe-amide (APSRLRF-NH2) [NPF II]
% inhibition of trypsin biosynthesis [1]: 35%

NPF I (Ala-Arg-Gly-Pro-Gln-Leu-Arg-Leu-Arg-Phe-amide) (peptide)
inhibition of trypsin biosynthesis (ligated abdomens of blood-fed female Aedes aegypti, 30 h after injection) (% inhibition at 10^-6 M) [2]: 54

YSPAP [18. YSPAP, YSPAP]
LD50 + S.E.M. (Aedes aegypti larvae): 1.4 ± 0.03 mM | Trypsin (TTLE biosynthesis; guts incubated with [3H]DFP): 2.0 ± 0.2 | Inhibition (trypsin) (TTLE biosynthesis; versus control): 19 ± 2% | Weight Gain ([3]; 0.8 mg of analogue, 5 days): 151 mg | Weight mg ± S.E.M. End ([3]; synthetic food and 0.8 mg of analogue, after 5 days): 188 ± 10.6 mg | Weight mg ± S.E.M. Start ([3]; weight before feeding (baseline)): 30.6 ± 1.2 mg | Number of Dead Larvae [4]: 0 | Weight ± S.E.M. [4]: 168 ± 11 mg | Weight Reduction ± S.E.M. ([4]; versus control): 0%

Reference: patent US6593299B1, “Compositions and methods for controlling pests” (priority 1999, dated 2003)
